Reference: patent publication US11952358B2, “Flavan-3-ol analogs and anti-inflammatory activity” (Hong Kong Baptist University, priority 2021, dated 2024)

Columns and labels:
IL-1β = assay: ELISA of IL-1β secretion from LPS-stimulated RAW 264.7 cells; type: cell-based, mouse; settings: compound 50 μM 24 h, then LPS 1 μg/mL 2 h (FIG. 8)
Method: RAW 264.7 cells were pretreated with each compound (50 μM) for 24 h followed by LPS (1 μg/mL) stimulation for another 2 h. The concentrations of IL-1β in RAW 264.7 cell culture supernatants were measured by ELISA kits and the inhibition rate of compound on the secretion of each pro-inflammatory cytokine was calculated. Data from three independent experiments were expressed as means±SD. *P<0.05, **P<0.01 compared with LPS-stimulated group.
Cell culture The RAW 264.7 cell line was purchased from the Cell Bank of Shanghai Institute of Biochemistry & Cell Biology at the Chinese Academy of Sciences (Shanghai, China) and cultured in DMEM supplemented with 10% (v/v) fetal bovine serum (FBS), 100 U/ml penicillin and 100 […], in a stable environment with 5% CO2 at 37° C. Before used in the following in vitro experiments, RAW 264.7 cells were pretreated with synthesized flavan-3-ol (25, 50 μM) for 24 h followed by LPS (1 μg/mL) stimulation for another 2 h.
Enzyme-Linked Immunosorbent Assay (ELISA) RAW 264.7 cells were treated with these synthesized flavan-3-ols (25, 50 μM) for 24 h followed by LPS (1 μg/mL) stimulation for another 2 h and the culture supernatant was collected. The concentrations of IL-1β, IL-6 and TNF-α in the culture supernatant of RAW 264.7 cells were determined according to the manufacturer's instructions of the Duo-set enzyme linked immune sorbent assay kits, purchased from R&D Systems Co. Ltd. (Minneapolis, MN, USA).
The increased pro-inflammatory cytokines production in RAW 264.7 cells has been reported to play an influential role in the inflammation response. To evaluate the anti-inflammatory effects of these flavan-3-ols in vitro, ELISA kits were employed to investigate their effects on the LPS (lipopolysaccharide)-induced pro-inflammatory cytokines production of RAW 264.7 cells. After treating with the flavan-3-ols (25 and 50 μM) and stimulated by LPS, the levels of three main pro-inflammation cytokines including IL-1β ([…]), IL-6 (interleukin-6), and TNF-α (tumor necrosis factor-α) in culture supernatant from RAW 264.7 cells were measured by ELISA kits, and then the inhibition rates of the flavan-3-ols on the secretion of each pro-inflammatory cytokine were calculated by the formula shown as follows.
[formula] In this formula, “L” refers to “the pro-inflammatory cytokine level in cell culture supernatant of LPS-induced group (L)” and “Lc” refers to “the pro-inflammatory cytokine level in cell culture supernatant of compound-treated group (Lc)”. Using this calculation, the reduced levels of pro-inflammation cytokines in the compound treated group would give higher values, which reflect higher inhibition rates.
FIG. 4a-c show the effect of flavan-3-ols on pro-inflammatory cytokine secretion in vitro. RAW 264.7 cells were pretreated with each compound (25, 50 μM) for 24 h followed by LPS (1 μg/mL) stimulation for another 2 h. The concentrations of IL-1β, IL-6, TNF-α in RAW 264.7 cell culture supernatants were measured by ELISA kits and the inhibition rate of compound on the secretion of each pro-inflammatory cytokine was calculated.

[1] = test system: LPS-stimulated RAW 264.7 cells; assay: RNA-sequencing analysis with GO and KEGG enrichment; type: cell-based, mouse; settings: 50 μM; vs LPS-stimulated group; KEGG-classified inflammation-related genes
Method: RNA-sequencing analysis RAW 264.7 cells were treated with each flavan-3-ol (25, 50 μM) for 24 h followed by LPS (1 μg/mL) stimulation for another 2 h. Cells were collected and then directly prepared for cDNAs amplification and RNA-Seq library construction. Total RNA was isolated with TRIzol reagent from each group. A complementary DNA library was prepared and sequencing was performed according to the Illumina standard protocol developed by Suzhou GENEWIZ Biological Technology Co., Ltd. (https://www.genewiz.com). […] After filtering, reference genome and gene model annotation files were downloaded from a genome website browser (NCBI/UCSC/Ensembl). Indexes of the reference genome were built using Bowtie v2.0.6 and paired-end clean reads were aligned to the reference genome using TopHat v2.0.9. Bowtie was used for a BWT (Burrows-Wheeler Transformer) algorithm for mapping reads to the genome and Tophat can generate a database of splice junctions based on the gene model annotation file and thus achieve a better mapping result than other non-splice mapping tools. For the quantification of gene expression level, HTSeq V0.6.1 was used to count the read numbers mapped for each gene. The RPKM of each gene was calculated based on the gene read counts mapped to this gene. A differential expression analysis was performed using the DESeq R package (1.10.1). For clustering, the inventors clustered different samples to see the correlation using hierarchical clustering distance method with the function of heatmap, SOM (Self-organization mapping) and k means using silhouette coefficient to adapt the optimal classification with default parameter in R. The complete RNA-seq datasets in this manuscript captioned has been deposited at GEO database (http://www.ncbi.nlm.nih.gov/geo/) under accession ID GSE181052.
Gene ontology (GO) and KEGG enrichment analysis GO enrichment analysis of differentially expressed genes was implemented by the GOseq R Package, in which gene length bias was corrected. GO analysis was performed with the DAVID online tool (https://david.ncifcrf.gov/). Top GO categories were selected according to the P-values. Pathways of differentially expressed genes were analyzed by the KEGG database (http://www.kegg.jp/kegg/). The inventors used KOBAS software to test the statistical enrichment of differential expression genes in KEGG pathways.
RNA-seq analysis of downstream genes regulated by flavan-3-ols. […] RNA-seq analysis was performed to further study the effects of compounds 3m, 3o, 3p, 3ae and 3ag on gene transcriptional pathways related to inflammation. RAW 264.7 cells were used in the RNA-seq analysis, in which cells were pretreated with each compound (50 μM) for 24 h followed by LPS (1 μg/mL) stimulation for another 2 h. […] Next, the inventors focused on genes related to inflammatory reactions and inflammation-related diseases (inflammation-related genes) based on the gene and pathway classification of Kyoto Encyclopedia of Genes and Genomes (KEGG database).
To further analyze the functional distribution of differentially-expressed genes in relation to different biological processes, cellular components and molecular functions, gene ontology (GO) enrichment analysis was performed. The histogram of GO enrichment of differentially-expressed genes was presented.
Furthermore, to determine the biochemical metabolic pathways and signal transduction pathways involved in differentially expressed genes regulated by compound 3ag, KEGG pathway analysis was then performed.

SMILES	melting point [°C]	inhibition rate of IL-1β secretion compared with enantiomer and racemic form (IL-1β)	inflammation-related genes downregulated [1]
COCOc1ccc2c(c1)C=C[C@H](c1ccccc1)O2 [1ab, (R)-6-(methoxymethoxy)-2-phenyl-2H-chromene]	69 to 70	–	–
Oc1ccc2c(c1)C=C[C@H](c1ccccc1)O2 [1ac, (R)-2-phenyl-2H-chromen-6-ol]	81 to 82	–	–
C1=C[C@H](c2ccc(OCc3ccccc3)cc2)Oc2ccccc21 [1d, (R)-2-(4-(benzyloxy)phenyl)-2H-chromene]	92 to 93	–	–
COCOc1ccc2c(c1)C[C@H](O)[C@@H](c1ccccc1)O2 [3ab, (2R,3S)-6-(methoxymethoxy)-2-phenylchroman-3-ol]	65 to 66	–	–
Oc1ccc2c(c1)C[C@H](O)[C@@H](c1ccccc1)O2 [3ac, (2R,3S)-2-phenylchromane-3,6-diol]	187 to 188	–	–
O[C@H]1Cc2cc(Cl)ccc2O[C@@H]1c1ccccc1 [3ae, (2R,3S)-6-chloro-2-phenylchroman-3-ol]	130 to 131	higher inhibition rates than their enantiomers	downregulated parts of inflammation-related genes
Cc1cc2c(cc1Cl)C[C@H](O)[C@@H](c1ccccc1)O2 [3af, (2R,3S)-6-chloro-7-methyl-2-phenylchroman-3-ol]	129 to 130	–	–
O[C@H]1Cc2cc(Cl)ccc2O[C@@H]1c1ccc(Cl)cc1 [3ah, (2R,3S)-6-chloro-2-(4-chlorophenyl)chroman-3-ol]	138 to 139	–	–
Cc1ccc([C@H]2Oc3ccccc3C[C@@H]2O)cc1 [3b, (2R,3S)-2-(p-tolyl)chroman-3-ol]	68 to 69	–	–
COc1ccc([C@H]2Oc3ccccc3C[C@@H]2O)cc1 [3c, (2R,3S)-2-(4-methoxyphenyl)chroman-3-ol]	89 to 90	–	–
O[C@H]1Cc2ccccc2O[C@@H]1c1ccc(OCc2ccccc2)cc1 [3d, (2R,3S)-2-(4-(benzyloxy)phenyl)chroman-3-ol]	113 to 114	–	–
COCOc1ccc([C@H]2Oc3ccccc3C[C@@H]2O)cc1 [3e, (2R,3S)-2-(4-(methoxymethoxy)phenyl)chroman-3-ol]	97 to 98	–	–
O[C@H]1Cc2ccccc2O[C@@H]1c1ccc(F)cc1 [3f, (2R,3S)-2-(4-fluorophenyl)chroman-3-ol]	99 to 100	–	–
O[C@H]1Cc2ccccc2O[C@@H]1c1ccc(Cl)cc1 [3g, (2R,3S)-2-(4-chlorophenyl)chroman-3-ol]	109 to 110	–	–
O[C@H]1Cc2ccccc2O[C@@H]1c1ccc(Br)cc1 [3h, (2R,3S)-2-(4-bromophenyl)chroman-3-ol]	109 to 110	–	–
Cc1ccccc1[C@H]1Oc2ccccc2C[C@@H]1O [3j, (2R,3S)-2-(o-tolyl)chroman-3-ol]	91 to 92	–	–
Cc1cccc([C@H]2Oc3ccccc3C[C@@H]2O)c1 [3k, (2R,3S)-2-(m-tolyl)chroman-3-ol]	88 to 89	–	–
Cc1cc(C)cc([C@H]2Oc3ccccc3C[C@@H]2O)c1 [3l, (2R,3S)-2-(3,5-dimethylphenyl)chroman-3-ol]	135 to 136	–	–
CCC[C@H]1Oc2ccccc2C[C@@H]1O [3p, (2R,3S)-2-propylchroman-3-ol]	–	–	downregulated parts of inflammation-related genes
CCC[C@@H]1Oc2ccccc2C[C@H]1O [3p′, (2S,3R)-2-propylchroman-3-ol]	–	higher inhibition rate of IL-1β secretion than its racemic mixture	–
Cc1cccc2c1C[C@H](O)[C@@H](c1ccccc1)O2 [3q, (2R,3S)-5-methyl-2-phenylchroman-3-ol]	116 to 117	–	–
Cc1ccc2c(c1)C[C@H](O)[C@@H](c1ccccc1)O2 [3r, (2R,3S)-6-methyl-2-phenylchroman-3-ol]	109 to 110	–	–
Cc1ccc2c(c1)O[C@H](c1ccccc1)[C@@H](O)C2 [3s, (2R,3S)-7-methyl-2-phenylchroman-3-ol]	95 to 96	–	–
Cc1cccc2c1O[C@H](c1ccccc1)[C@@H](O)C2 [3t, (2R,3S)-8-methyl-2-phenylchroman-3-ol]	68 to 69	–	–
Cc1cc(C)c2c(c1)O[C@H](c1ccccc1)[C@@H](O)C2 [3u, (2R,3S)-5,7-dimethyl-2-phenylchroman-3-ol]	149 to 150	–	–
Cc1cc2c(cc1C)O[C@H](c1ccccc1)[C@@H](O)C2 [3v, (2R,3S)-6,7-dimethyl-2-phenylchroman-3-ol]	151 to 152	–	–
COc1cccc2c1C[C@H](O)[C@@H](c1ccccc1)O2 [3w, (2R,3S)-5-methoxy-2-phenylchroman-3-ol]	116 to 117	–	–
COc1ccc2c(c1)C[C@H](O)[C@@H](c1ccccc1)O2 [3x, (2R,3S)-6-methoxy-2-phenylchroman-3-ol]	118 to 119	–	–
COc1cccc2c1O[C@H](c1ccccc1)[C@@H](O)C2 [3z, (2R,3S)-8-methoxy-2-phenylchroman-3-ol]	151 to 152	–	–
Oc1ccc([C@H]2Oc3ccccc3C[C@@H]2O)cc1 [compound 5, (2R,3S)-2-(4-hydroxyphenyl)chroman-3-ol]	106 to 107	–	–
